Assay [1] can be described thus: Sensory assessment of skin feel on the treated forearm. In kind it is in vivo, human. The note with it: FIG. 1; versus standard co-surfactant Cocamidopropylbetaine; inside of forearm. From the text: The conditioning properties of two surfactant mixtures were compared with one another by sensory assessment. After the sample composition had been completely absorbed onto the skin, the upper side of the middle and index fingers was slowly drawn without pressing over the treated inside of the forearm. If the skin surface was felt to be without friction, this corresponded to a soft skin feel.
In FIG. 1, marks in the left column favor the standard co-surfactant and marks in the right column favor the inventive co-surfactant for that property. In FIG. 1, square marks indicate a high degree of significance; diamonds indicate a medium degree of significance and circles indicate a low degree of significance (as indicated also by the length of the horizontal lines through the marks).

Assay [2] can be described thus: Adsorption of sodium lauryl ether sulfate onto skin. Also noted: species or system human. As to conditions: FIG. 4; versus standard co-surfactant cocoglutamate.
A short description of assay [3]: Half head test, shampoo versus standard. It counts as in vivo, human. As for the experimental part:
Each test was conducted on 10 volunteers by trained and skilled people. Each half of the head was prewashed and then treated with the corresponding products. During the test, performance properties, such as skin feel, were evaluated first, followed by such parameters as combability, feel, luster and volume.

[4] abbreviates: FIG. 2, versus standard co-surfactant Cocamidopropylbetaine, no added polymer.
Setting [5] is: FIG. 3, versus standard co-surfactant Cocamidopropylbetaine and a polymer.

Regarding Laureth-7 Citrate, the “Skin feel (softness), sensory assessment” value in assay [1] is “felt to be softer”. Also, the “Prevention of adsorption of sodium lauryl ether sulfate onto skin” value in assay [2] was “prevented considerably more effectively”. Besides, in assay [3] (setting [4]), the “Combability of hair in the dry and wet state” value was “can be combed far better both in the dry and in the wet state”; the “Feel properties of hair” value was “distinctly better”. Further, the Conditioning properties result in assay [3] (FIG. 2, versus standard co-surfactant Cocamidopropylbetaine, no added polymer, 10 volunteers) was “clearly superior conditioning properties”. Also, in assay [3] (setting [5]), the “Combability of dry hair” value is “improved combability of dry hair” and the “Feel of the hair” value is reported as “more pleasant feel of the hair”.

The values above are taken from patent publication US20060018857A1, “Conditioning surface-active preparation” (priority 2004, published 2006).
